The results in this text go back to patent publication US20060257466A1, “Administration of macrophage targeted formulations of compounds which modulate cholesterol-metabolizing enzymes for treatment of atherosclerosis” (priority 2005, published 2006).

The assay relates to J774 macrophages. Nature of the assay: Cholesterol efflux in vivo (macrophage cholesterol export). The conditions noted are these: mice injected with [3H]-cholesterol-loaded J774 cells; 20 μg, tail vein; versus PBS vehicle; FIG. 1. As to the method: FIG. 1 is a line graph comparing in vivo macrophage cholesterol export in mice treated with a liposomal formulation of the ACAT inhibitor, Sandoz 58-035, at an estimated dose of 20 μg (open circles), mice treated with 20 μg of free non-liposome formulated Sandoz 58-035 (closed circles), and mice administered phosphate buffered saline (closed triangles).
For non-liposome formulated Sandoz 58-035 experiments, 10 ul of the stock solution (2 mg/ml) was diluted with 190 ul of phosphate buffered saline (PBS) to give a final Sandoz 58-035 solution of 20 μg/200 μl. Two hundred microliters of this solution containing 20 μg of Sandoz 58-035 was injected into each mouse through the tail vein.
Sandoz 58-035 was liposome formulated using a modified method of Jonas and co-workers (Jonas et al. J. Bio. Chem. 1989 264:4818-4825). […]
To determine cholesterol export in vivo, J774 cells were loaded with cholesterol and simultaneously incubated for 3 hours with 0.5 μCi/mL [^3H]-cholesterol, followed by an overnight equilibration period as described by Tam et al. (J. Lipid Res. 2002 43:1410-1420). […] Cholesterol efflux was determined by measuring the appearance of [^3H]-cholesterol in plasma by scintillation spectrometry. […]

As to `CCCCCCCCCC[Si](C)(C)CCC(=O)NC(Cc1ccc(C)cc1)c1ccccc1` (stereo not shown) [Sandoz 58-035], the “in vivo macrophage cholesterol export (result in words)” value was “did not increase macrophage cholesterol export over the vehicle”.
